One series deals with fish species. Conditions: 96 h static; ECHA database, mg/L converted to -log M; cited from earlier work.
The format of series [1] is physicochemical. Conditions: IAM PC.DD2 column, pH 7.4, acetonitrile gradient, UV filters.
Series [2] concerns water flea (Daphnia magna). The following applies: 48 h static, immobilization; ECHA database, converted to -log M; cited from earlier work.
For series [3] the following is noted: cited from earlier work; for CHIIAM (predetermined): calibration set, established by isocratic measurement; for CHIIAM: pharmaceuticals used for model construction (training set).

Where two headings read alike, the source gives them in different places.

Results on 34 compounds are retold here after article PMC11542717 (ADMET & DMPK, 2024).

With `Nc1ccc(C(=O)O)cc1` [4-Aminobenzoic Acid, 4-aminobenzoic acid], the “pLC50 fish, Experimental” value with fish species is reported as 2.12. For the same compound, the results for the “CHIIAM (chromatographic phospholipid binding)” value in series [1] and in series [1] (listed as aminobenzoic acid) were 3.30 and below 20, respectively. The “pEC50 water flea (Daphnia magna), Experimental” value (“pEC50 water flea (Daphnia magna)” below) in series [2] was 3.26.
For `CC(=O)c1ccccc1` [Acetophenone], the “CHIIAM (predetermined)” value in series [3] is 17.2.
For `CN(C)CCC=C1c2ccccc2CCc2ccccc21` [Amitriptyline], the CHIIAM in series [3] is listed as 55.3.
Regarding `CC1(C)S[C@@H]2[C@H](NC(=O)[C@H](N)c3ccccc3)C(=O)N2[C@H]1C(=O)O` [Ampicillin], the CHIIAM in series [3] is on record as 10.5.
For `COc1ccc(C(=O)CC(=O)c2ccc(C(C)(C)C)cc2)cc1` [Avobenzone, avobenzone], the “CHIIAM (chromatographic phospholipid binding)” value in series [1] is reported as 53.4; in series [1] (listed as avobenzone), above 45. Besides, the “pEC50 water flea (Daphnia magna)” value in series [2] was 5.20.
As to `CCCC(=O)c1ccccc1` [Butyrophenone], the “CHIIAM (predetermined)” value in series [3] is reported as 32.0.
With `NC(=O)N1c2ccccc2C=Cc2ccccc21` [Carbamazepine], the CHIIAM in series [3] was 26.9.
Take `O=C(O)Cc1ccccc1Nc1c(Cl)cccc1Cl` [Diclofenac]: in series [3], the CHIIAM is given as 34.1.
On to `COc1ccc([C@@H]2Sc3ccccc3N(CCN(C)C)C(=O)[C@@H]2OC(C)=O)cc1` [Diltiazem], for which, in series [3], the CHIIAM was 42.0.
Consider `COc1ccc(C(=O)c2ccccc2O)c(O)c1` [Dioxybenzone, dioxybenzone], for which the “CHIIAM (chromatographic phospholipid binding)” value in series [1] was 39.9. In addition, the “pEC50 water flea (Daphnia magna)” value in series [2] is on record as 4.76.
For `O=S(=O)(O)c1ccc2[nH]c(-c3ccccc3)nc2c1` [Ensulizole, ensulizole], the “pLC50 fish, Experimental” value in the series with fish species is on record as 2.91. Moreover, the “CHIIAM (chromatographic phospholipid binding)” value in series [1] is recorded as 13.2; in series [1] (listed as ensulizole) it was below 20. Further, the “pEC50 water flea (Daphnia magna)” value in series [2] is given as 3.44.
For `Cc1ccc(C)c(OCCCC(C)(C)C(=O)O)c1` [Gemfibrozil], the CHIIAM in series [3] is given as 33.7.
Take `CCCCCCC(=O)c1ccccc1` [Heptanophenone]: in series [3], the “CHIIAM (predetermined)” value is recorded as 45.7.
`CCCCCC(=O)c1ccccc1` [Hexanophenone]: the “CHIIAM (predetermined)” value in series [3] is listed as 41.8.
As to `CC1CC(OC(=O)c2ccccc2O)CC(C)(C)C1` (centres unmarked) [Homosalate, homosalate], the results for the “CHIIAM (chromatographic phospholipid binding)” value in series [1] and in series [1] (listed as homosalate) were 56.8 and above 45, respectively.
`CC1CCC(C(C)C)C(OC(=O)c2ccccc2N)C1` (centres unmarked) [Meradimate, meradimate]: in the series on fish species, the “pLC50 fish, Experimental” value is given as 4.48. The “CHIIAM (chromatographic phospholipid binding)” value in series [1] is given as 56.9; in series [1] (listed as meradimate), above 45. The “pEC50 water flea (Daphnia magna)” value in series [2] is on record as 5.24.
Turning to `COCCc1ccc(OCC(O)CNC(C)C)cc1` (centres unmarked) [Metoprolol], the CHIIAM in series [3] is 35.4.
On to `Cc1ncc([N+](=O)[O-])n1CCO` [Metronidazole], for which, in series [3], the CHIIAM is -4.81.
For the compound `CCCCCCCC(=O)c1ccccc1` [Octanophenone], the “CHIIAM (predetermined)” value in series [3] is 49.4.
With `CCCCC(CC)COC(=O)C=Cc1ccc(OC)cc1` (centres unmarked) [Octinoxate, octinoxate], the “CHIIAM (chromatographic phospholipid binding)” value was 54.2 in series [1] and above 45 in series [1] (listed as octinoxate). In addition, in series [2], the “pEC50 water flea (Daphnia magna)” value is reported as 5.03.
`CCCCC(CC)COC(=O)c1ccccc1O` (centres unmarked) [Octisalate, octisalate]: the “pLC50 fish, Experimental” value with fish species is on record as 4.40. Further, the “CHIIAM (chromatographic phospholipid binding)” value in series [1] was 55.1; in series [1] (listed as octisalate) it was above 45. Also, the “pEC50 water flea (Daphnia magna)” value in series [2] is recorded as 5.58.
With `CCCCC(CC)COC(=O)C(C#N)=C(c1ccccc1)c1ccccc1` (centres unmarked) [Octocrylene, octocrylene], the “pLC50 fish, Experimental” value in the series on fish species is given as 5.65. For the same compound, the results for the “CHIIAM (chromatographic phospholipid binding)” value in series [1] and in series [1] (listed as octocrylene) were 60.0 and above 45, respectively. Further, the “pEC50 water flea (Daphnia magna)” value in series [2] is 5.06.
Regarding `CC1COc2c(N3CCN(C)CC3)c(F)cc3c(=O)c(C(=O)O)cn1c23` (centres unmarked) [Ofloxacin], in series [3], the CHIIAM was 28.9.
Turning to `COc1ccc(C(=O)c2ccccc2)c(O)c1` [Oxybenzone, oxybenzone], the “pLC50 fish, Experimental” value in the series with fish species was 4.78. For the same compound, the “CHIIAM (chromatographic phospholipid binding)” value in series [1] came out at 40.8. The “pEC50 water flea (Daphnia magna)” value in series [2] was 4.92.
Take `CCCCC(CC)COC(=O)c1ccc(N(C)C)cc1` (centres unmarked) [Padimate O, padimate O]: the “pLC50 fish, Experimental” value in the series on fish species is given as 4.85. In addition, the “CHIIAM (chromatographic phospholipid binding)” value in series [1] worked out at 53.6. In series [2], the “pEC50 water flea (Daphnia magna)” value is 4.69.
As for `CCC(=O)c1ccccc1` [Propiophenone], in series [3], the “CHIIAM (predetermined)” value is 25.9.
In the case of `CCc1nc(N)nc(N)c1-c1ccc(Cl)cc1` [Pyrimethamine], in series [3], the CHIIAM is 38.2.
As to `Nc1ccc(S(=O)(=O)Nc2ccc(Cl)nn2)cc1` [Sulfachlorpyridazine], the CHIIAM in series [3] was 7.67.
With `COc1cc(NS(=O)(=O)c2ccc(N)cc2)nc(OC)n1` [Sulfadimethoxine], the CHIIAM in series [3] is 13.8.
`COc1ccc(NS(=O)(=O)c2ccc(N)cc2)nn1` [Sulfamethoxypyridazine]: in series [3], the CHIIAM is recorded as 10.9.
On to `Nc1ccc(S(=O)(=O)Nc2nccs2)cc1` [Sulfathiazole], for which, in series [3], the CHIIAM is 11.0.
`COc1cc(O)c(C(=O)c2ccccc2)cc1S(=O)(=O)O` [Sulisobenzone, sulisobenzone]: the “pLC50 fish, Experimental” value with fish species is 2.69. Moreover, the “CHIIAM (chromatographic phospholipid binding)” value is 14.3 in series [1] and below 20 in series [1] (listed as sulisobenzone). Moreover, the “pEC50 water flea (Daphnia magna)” value in series [2] is on record as 3.79.
As for `Cn1c(=O)c2[nH]cnc2n(C)c1=O` [Theophylline], the CHIIAM in series [3] was 1.80.
`CCCCC(=O)c1ccccc1` [Valerophenone]: the “CHIIAM (predetermined)” value in series [3] was 37.3.
